# Literature values, collected in publication PMC3989431 (Peptides, 2013).
# Test system: H. zea pupae
# Details: earlier in vivo bioassay
substance,measurement,value
AWFGPRLa,in vivo activity,without in vivo activity
